Measurements reported in ChEMBL document CHEMBL1151514, “Imetit and N-methyl derivatives. The transition from potent agonist to antagonist at histamine H3 receptors.1” (Bioorg Med Chem Lett, 1992).

Legend:
Histamine H3 receptor [1] = target: T1, Histamine H3 receptor (Rattus norvegicus, UniProt Q9QYN8); assay: The compound was evaluated for agonistic effect on release of [3H]histamine from rat brain cortical slices with L-[3H]histidine at 0.3 uM; assay type: functional, tissue-based
Mus musculus = assay: Compound was tested for in vivo in mice which produced a decrease in the brain level of N-tele-methylhistamine when administered orally; assay type: functional; conditions: po
Histamine H3 receptor [2] = target: T1, Histamine H3 receptor; assay: The compound was evaluated for antagonistic effect on release of [3H]histamine from rat brain cortical slices with L-[3H]histidine at 0.3 uM; assay type: functional, tissue-based
Rattus norvegicus = species on record: Rattus norvegicus; assay: Concentrations required for half-maximal inhibition of tritiated amine release from rat cortical slices; assay type: functional
Histamine H3 receptor [3] = target: T1, Histamine H3 receptor; assay: Compound was evaluated for antagonistic effect on release of [3H]histamine from rat brain cortical slices with L-[3H]histidine at 0.3 uM; assay type: functional, tissue-based

T1 sequence (Q9QYN8 whole entry): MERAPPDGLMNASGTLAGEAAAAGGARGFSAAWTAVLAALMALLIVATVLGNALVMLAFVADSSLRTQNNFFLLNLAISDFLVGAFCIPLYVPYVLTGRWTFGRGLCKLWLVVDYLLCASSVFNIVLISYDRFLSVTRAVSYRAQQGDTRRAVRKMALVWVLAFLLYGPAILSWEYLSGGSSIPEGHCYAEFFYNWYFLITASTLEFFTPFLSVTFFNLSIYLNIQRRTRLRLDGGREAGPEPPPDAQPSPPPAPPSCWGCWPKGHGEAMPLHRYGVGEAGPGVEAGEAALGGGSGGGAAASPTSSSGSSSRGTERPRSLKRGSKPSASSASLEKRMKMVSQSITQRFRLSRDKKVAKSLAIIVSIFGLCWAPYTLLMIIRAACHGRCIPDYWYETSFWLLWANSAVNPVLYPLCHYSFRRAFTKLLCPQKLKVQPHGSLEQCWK

## Br.CNC(=N)SCCc1c[nH]cn1
Histamine H3 receptor [1]
  EC50: 15 nM
Mus musculus
  ED50: 25 mg/kg

## CN(C)C(=N)SCCc1c[nH]cn1
Histamine H3 receptor [2]
  Ki: 500 nM

## C/N=C(/SCCc1c[nH]cn1)N(C)C
Rattus norvegicus
  EC50: 1 nM
Histamine H3 receptor [3]
  Ki: ≥ 500 nM

## Br.N=C(N)SCCc1c[nH]cn1 [IMETIT DIHYDROBROMIDE]
Mus musculus
  ED50: ~1 mg/kg

## C/N=C(\NC)SCCc1c[nH]cn1
Histamine H3 receptor [2]
  Ki: 51 nM

## c1nc(CCSC2=NCCN2)c[nH]1
Histamine H3 receptor [2]
  Ki: 260 nM
